Holding throughout (assay type): in vivo
Assay [1] relates to barnyardgrass (Echinochloa crus-galli, ECHCG). The experiment in a line: Test A pre-emergence, barnyardgrass. The following applies: after 13 d. In outline:
(§1)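 After sowing in pots and a single day of glasshouse cultivation, the soil was treated with an aqueous spray of the compound (acetone/water 50:50, 0.5% Tween 20) giving 15.625, 62.5 or 250 g/ha. Evaluation after 13 d used a scale where 0 meant no damage and 100 total damage.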

In assay [2] the test system is ivy-leaved morning glory (Ipomoea hederacea, IPOHE). The experiment in a line: Test A pre-emergence, ivy-leaved morning glory. Particulars: after 13 d. In short, it runs like this: as §1
In another assay the test system is corn (Zea mays, ZEAMX). The experiment in a line: Test A post-emergence, corn. Particulars: after 13 d. In short, it runs like this: (§2)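 Visual damage rating (0 no damage to 100 total damage) was made 13 d after spraying. The spray was 15.625, 62.5 or 250 g/ha in 50:50 acetone/water with 0.5% Tween 20, applied to 8-day-old glasshouse plants kept at 24/16° C, 14 h light and 65% humidity.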

Assay [3] deals with ivy-leaved morning glory (Ipomoea hederacea, IPOHE). The assay is described as follows: Test A post-emergence, ivy-leaved morning glory. The following applies: after 13 d. In short, it runs like this: as §2
The test system of another assay is maize. The assay is described as follows: Test D post-emergence, maize seed treated with a herbicide safener. The protocol: A formulation containing 50 g/L of the test chemical was prepared by dissolving the active ingredient in a mixture of organic solvents and emulsifier, details of which are provided in the table. This formulation was then mixed with a small, variable amount of acetone to aid dissolution, before addition of a 0.2% v/v aqueous solution of an adjuvant, as the aqueous diluent, to form an aqueous spray solution which contains a predetermined concentration of the active ingredient.
This aqueous spray solution was then sprayed onto plants including maize and wheat that had been seed treated with a herbicide safener, after one day's cultivation (for pre-emergence) or after about 12 days' cultivation (for post-emergence). The plants were grown from seeds sown in standard soil, placed in a glasshouse under controlled conditions (at 24/18° C. or 20/16° C., day/night; 16 h light; 65% humidity). After spray application the plants were then grown in a glasshouse under the same conditions and watered twice daily. After 15 d for post-emergence and 20 DAA for pre-emergence the test was evaluated (100=total damage to plant; 0=no damage to plant).

With `CN1C[C@H](c2nn(C)c3c(F)cccc23)[C@@H](C(=O)Nc2cccc(F)c2F)C1=O` [Compound 2], the “damage to plant (100=total damage; 0=no damage) ECHCG” value in assay [1] (Pre-Emergence at 15.625 g/ha), in assay [1] (Pre-Emergence at 62.5 g/ha) and in assay [1] (Pre-Emergence at 250 g/ha) was 90 throughout. The “damage to plant (100=total damage; 0=no damage) IPOHE” value in assay [2] (Pre-Emergence at 15.625 g/ha), in assay [2] (Pre-Emergence at 62.5 g/ha), in assay [2] (Pre-Emergence at 250 g/ha), in assay [3] (Post-Emergence at 15.625 g/ha), in assay [3] (Post-Emergence at 62.5 g/ha) and in assay [3] (Post-Emergence at 250 g/ha) was 0 in each case. For the same compound, the “damage to plant (100=total damage; 0=no damage) ZEAMX” value worked out at 10 in the assay with corn (Zea mays, ZEAMX) (Post-Emergence at 15.625 g/ha); 0 in the assay with corn (Zea mays, ZEAMX) (Post-Emergence at 62.5 g/ha); 40 in the assay on corn (Zea mays, ZEAMX) (Post-Emergence at 250 g/ha). In addition, the “damage to plant (100=total damage to plant; 0=no damage to plant), ZEAMX” value came out at 0 in the assay with maize (rate 130, evaluated after 15 d); 0 in the assay with maize (rate 250, evaluated after 15 d); 20 in the assay on maize (rate 500, evaluated after 15 d).
With `CN1CC(c2cc(C(F)(F)F)n(C)n2)C(C(=O)Nc2cccc(F)c2C(F)(F)F)C1=O` (racemic) [Compound 19], the “damage to plant (100=total damage; 0=no damage) ECHCG” value in assay [1] (Pre-Emergence at 15.625 g/ha) came to 70; in assay [1] (Pre-Emergence at 62.5 g/ha), 90; in assay [1] (Pre-Emergence at 250 g/ha), 90. Also, the “damage to plant (100=total damage; 0=no damage) IPOHE” value in assay [2] (Pre-Emergence at 15.625 g/ha) is reported as 0; in assay [2] (Pre-Emergence at 62.5 g/ha) it was 0; in assay [2] (Pre-Emergence at 250 g/ha) it was 10; in assay [3] (Post-Emergence at 15.625 g/ha), 0; in assay [3] (Post-Emergence at 62.5 g/ha) it was 0; in assay [3] (Post-Emergence at 250 g/ha), 0. In addition, the “damage to plant (100=total damage; 0=no damage) ZEAMX” value in the assay with corn (Zea mays, ZEAMX) (Post-Emergence at 15.625 g/ha) is given as 0; in the assay with corn (Zea mays, ZEAMX) (Post-Emergence at 62.5 g/ha), 0; in the assay with corn (Zea mays, ZEAMX) (Post-Emergence at 250 g/ha) it was 10. The “damage to plant (100=total damage to plant; 0=no damage to plant), ZEAMX” value with maize (rate 130, evaluated after 15 d) was 0; in the assay on maize (rate 250, evaluated after 15 d), 0; in the assay with maize (rate 500, evaluated after 15 d), 30.
For `CCn1nc([C@H]2CN(C)C(=O)[C@@H]2C(=O)Nc2cccc(F)c2F)c2c(F)cccc21` [Compound 7], the “damage to plant (100=total damage; 0=no damage) ECHCG” value in assay [1] (Pre-Emergence at 15.625 g/ha) is 70; in assay [1] (Pre-Emergence at 62.5 g/ha) it was 80; in assay [1] (Pre-Emergence at 250 g/ha), 90. For the same compound, the “damage to plant (100=total damage; 0=no damage) IPOHE” value came out at 20 in assay [2] (Pre-Emergence at 15.625 g/ha); 20 in assay [2] (Pre-Emergence at 62.5 g/ha); 80 in assay [2] (Pre-Emergence at 250 g/ha); 20 in assay [3] (Post-Emergence at 15.625 g/ha); 20 in assay [3] (Post-Emergence at 62.5 g/ha); 0 in assay [3] (Post-Emergence at 250 g/ha). For the same compound, the “damage to plant (100=total damage; 0=no damage) ZEAMX” value turned out to be 20 with corn (Zea mays, ZEAMX) (Post-Emergence at 15.625 g/ha); 40 in the assay with corn (Zea mays, ZEAMX) (Post-Emergence at 62.5 g/ha); 80 in the assay with corn (Zea mays, ZEAMX) (Post-Emergence at 250 g/ha). Besides, the “damage to plant (100=total damage to plant; 0=no damage to plant), ZEAMX” value with maize (rate 130, evaluated after 15 d) was 0; in the assay on maize (rate 250, evaluated after 15 d), 0; with maize (rate 500, evaluated after 15 d), 10.
Regarding `CCn1nc([C@@H]2CN(C)C(=O)[C@H]2C(=O)Nc2cccc(F)c2F)c2cccc(F)c21` [Compound 14], the “damage to plant (100=total damage; 0=no damage) ECHCG” value is 60 in assay [1] (Pre-Emergence at 15.625 g/ha), 80 in assay [1] (Pre-Emergence at 62.5 g/ha) and 90 in assay [1] (Pre-Emergence at 250 g/ha). For the same compound, the “damage to plant (100=total damage; 0=no damage) IPOHE” value is 30 in assay [2] (Pre-Emergence at 15.625 g/ha); 40 in assay [2] (Pre-Emergence at 62.5 g/ha); 70 in assay [2] (Pre-Emergence at 250 g/ha); 10 in assay [3] (Post-Emergence at 15.625 g/ha); 30 in assay [3] (Post-Emergence at 62.5 g/ha); 50 in assay [3] (Post-Emergence at 250 g/ha). Besides, the “damage to plant (100=total damage; 0=no damage) ZEAMX” value in the assay on corn (Zea mays, ZEAMX) (Post-Emergence at 15.625 g/ha) turned out to be 70; with corn (Zea mays, ZEAMX) (Post-Emergence at 62.5 g/ha) it was 70; in the assay with corn (Zea mays, ZEAMX) (Post-Emergence at 250 g/ha) it was 80. Further, the “damage to plant (100=total damage to plant; 0=no damage to plant), ZEAMX” value is 0 in the assay with maize (rate 130, evaluated after 15 d); 0 in the assay with maize (rate 250, evaluated after 15 d); 20 in the assay with maize (rate 500, evaluated after 15 d).
On to `CN1CC(c2cc(C(F)(F)F)n(C)n2)C(C(=O)Nc2ccc(F)nc2F)C1=O` (racemic) [Compound 22], for which the “damage to plant (100=total damage; 0=no damage) ECHCG” value in assay [1] (Pre-Emergence at 15.625 g/ha) is recorded as 70; in assay [1] (Pre-Emergence at 62.5 g/ha), 90; in assay [1] (Pre-Emergence at 250 g/ha), 90. Moreover, the “damage to plant (100=total damage; 0=no damage) IPOHE” value in assay [2] (Pre-Emergence at 15.625 g/ha) was found to be 0; in assay [2] (Pre-Emergence at 62.5 g/ha), 0; in assay [2] (Pre-Emergence at 250 g/ha), 0; in assay [3] (Post-Emergence at 15.625 g/ha), 0; in assay [3] (Post-Emergence at 62.5 g/ha), 10; in assay [3] (Post-Emergence at 250 g/ha), 30. The “damage to plant (100=total damage; 0=no damage) ZEAMX” value in the assay with corn (Zea mays, ZEAMX) (Post-Emergence at 15.625 g/ha) was determined as 20; in the assay with corn (Zea mays, ZEAMX) (Post-Emergence at 62.5 g/ha) it was 40; with corn (Zea mays, ZEAMX) (Post-Emergence at 250 g/ha), 80. For the same compound, the “damage to plant (100=total damage to plant; 0=no damage to plant), ZEAMX” value is on record as 0 with maize (rate 130, evaluated after 15 d); 0 with maize (rate 250, evaluated after 15 d); 20 in the assay with maize (rate 500, evaluated after 15 d).
For the compound `CN1CC(c2cc(C(F)(F)F)n(C)n2)C(C(=O)Nc2ccc(F)c(F)c2F)C1=O` (racemic) [Compound 17], the “damage to plant (100=total damage; 0=no damage) ECHCG” value in assay [1] (Pre-Emergence at 15.625 g/ha) is on record as 90; in assay [1] (Pre-Emergence at 62.5 g/ha), 100; in assay [1] (Pre-Emergence at 250 g/ha), 100. For the same compound, the “damage to plant (100=total damage; 0=no damage) IPOHE” value worked out at 0 in assay [2] (Pre-Emergence at 15.625 g/ha); 0 in assay [2] (Pre-Emergence at 62.5 g/ha); 20 in assay [2] (Pre-Emergence at 250 g/ha); 0 in assay [3] (Post-Emergence at 15.625 g/ha); 0 in assay [3] (Post-Emergence at 62.5 g/ha); 0 in assay [3] (Post-Emergence at 250 g/ha). The “damage to plant (100=total damage; 0=no damage) ZEAMX” value in the assay on corn (Zea mays, ZEAMX) (Post-Emergence at 15.625 g/ha) is recorded as 10; in the assay with corn (Zea mays, ZEAMX) (Post-Emergence at 62.5 g/ha), 50; in the assay with corn (Zea mays, ZEAMX) (Post-Emergence at 250 g/ha) it was 80. Besides, the “damage to plant (100=total damage to plant; 0=no damage to plant), ZEAMX” value in the assay on maize (rate 130, evaluated after 15 d) amounted to 0; with maize (rate 250, evaluated after 15 d), 0; in the assay with maize (rate 500, evaluated after 15 d), 0.
In the case of `CN1CC(c2cc(C(F)(F)F)n(C)n2)C(C(=O)Nc2ccc(F)cc2C(C)(F)F)C1=O` (racemic) [Compound 26], the “damage to plant (100=total damage; 0=no damage) ECHCG” value in assay [1] (Pre-Emergence at 62.5 g/ha) and in assay [1] (Pre-Emergence at 250 g/ha) was 90 each time. Further, the “damage to plant (100=total damage; 0=no damage) IPOHE” value is given as 30 in assay [2] (Pre-Emergence at 62.5 g/ha), 70 in assay [2] (Pre-Emergence at 250 g/ha), 20 in assay [3] (Post-Emergence at 62.5 g/ha) and 50 in assay [3] (Post-Emergence at 250 g/ha). In addition, the “damage to plant (100=total damage; 0=no damage) ZEAMX” value came to 60 in the assay with corn (Zea mays, ZEAMX) (Post-Emergence at 62.5 g/ha) and 80 in the assay with corn (Zea mays, ZEAMX) (Post-Emergence at 250 g/ha). The “damage to plant (100=total damage to plant; 0=no damage to plant), ZEAMX” value in the assay on maize (rate 130, evaluated after 15 d) stood at 0; in the assay on maize (rate 250, evaluated after 15 d), 0; in the assay on maize (rate 500, evaluated after 15 d), 10.

The values are drawn from patent publication US20220281848A1, “PYRAZOLE-SUBSTITUTED PYRROLIDINONES AS HERBICIDES” (FMC Corporation, priority 2019, published 2022).
